Assay results as given in patent publication US20260297060A1, “COMPOUNDS FOR THE DEGRADATION OF MUTANT BRAF” (C4 THERAPEUTICS, INC., priority 2023, published 2026).
Read-outs that look alike come from different tables or passages of the source.

How the values were obtained:
[1] = Example 6 pharmacokinetics assay for efficacy study (plasma, liver); type: in vivo, BALB/c nude mice; settings: 10 mg/kg, p.o., BID × 21 days; for concentration at 6 h: mouse, po
Procedure: For efficacy study, compounds were tested in the A375 human melanoma xenografts. Known BRAF inhibitors encorafenib, and dabrafenib were used as positive controls. Encorafenib and dabrafenib were administered to BALB/c nude mice bearing A375 tumors on PG-D1 and dosed PO daily (QD) for 3 weeks. Encorafenib was dosed at 35 mg/kg. Dabrafenib was dosed at 100 mg/kg. Compound 83, Compound 93, Compound 70, and Compound 54 were administered to BALB/c nude mice bearing A375 tumors on PG-DO and dosed PO twice per day (BID) for 3 weeks. Compound 83, Compound 93, Compound 70, and Compound 54 were dosed at 10 mg/kg.
(§1) The plasma samples were collected at predetermined time points for PK analysis. The mice were euthanized at predetermined time points post the treatment. The blood samples were collected into the 1.5 mL Eppendorf tubes containing 15 μL of 0.5 M EDTA-K2. And then the anticoagulant blood samples were centrifuged at 2,500 g at 4° C. for 15 minutes. The plasma samples were separated into 2 aliquots. The 1st was used for PK analysis, and the 2nd served as backup. The samples were stored at −80° C. before bioanalysis.
(§2) Liver samples were collected at predetermined time points for PK analysis. The left lobe of the liver was dissected out and split into 2 parts. The 1st part was used for PK analysis and the 2nd part served as the backup for the study. The samples were transferred into pre-labeled tubes and quickly froze in liquid nitrogen within 2 minutes after dissection. The samples were stored at −80° C. before bioanalysis.
For efficacy study, the harvested plasma and liver were processed for pharmacokinetics analysis by LC/MS/MS with a concentration range of 2.00-2000 ng/mL for Encorafenib and Dabrafenib in plasma, 0.20-200 ng/mL for Encorafenib and Dabrafenib in liver, 50.0-50000 ng/mL for compound 83 and compound 70 in plasma, 20.0-20000 ng/mL for Compound 93 and Compound 54 in plasma, 5.00-5000 ng/mL for compound 93, compound 83, compound 70 and compound 54 in liver.

[2] = tested on: A375 tumors; assay: In vivo efficacy, A375 xenograft tumor volume (Example 7); set-up: species or system human A375 melanoma xenograft in female BALB/c nude mice; settings: oral, FIG. 14; for tumor regressions in the xenograft model: 10 mg/kg BID, A375 xenografts; for antitumor response compared with comparators dabrafenib or encorafenib: A375 human melanoma xenografts
Procedure: FIG. 14 is a line graph showing in vivo efficacy of dabrafenib, Compound 141, Compound 118, Compound 156, and Compound 180 in the treatment of female BALB/c nude mice bearing A375 tumors. Mice were treated with vehicle (10 μL/g, p.o., BID), dabrafenib (100 mg/kg, p.o., QD), Compound 141 (10 mg/kg, p.o., QD), Compound 141 (10 mg/kg, p.o., BID), Compound 118 (10 mg/kg, p.o., BID), Compound 156 (10 mg/kg, p.o., BID), or Compound 180 (10 mg/kg, p.o., BID) by oral gavage (p.o.). Data points represent group mean change in tumor volume. Error bars represent standard error of the mean (SEM). The x-axis is the time measured in days and the y-axis is A375 tumor volume measured in mm^3. The experiment was conducted as described in Example 7.

[3] = Example 7 pharmacokinetics assay for PKPD study (plasma, tumor, liver); type: in vivo, BALB/c nude mice; settings: mouse, po, 10 mg/kg, p.o., single dose
Procedure: For the PK and PD study, agents were administered to BALB/c nude mice bearing A375 human melanoma xenografts tumors. Dabrafenib, Compound 141, Compound 118, Compound 156, and Compound 180 were dosed p.o. once on day 1. Known BRAF inhibitor Dabrafenib was used as a positive control. Dabrafenib was dosed at 100 mg/kg. Compound 141, Compound 118, Compound 156, and Compound 180 were dosed at 10 mg/kg.
as §1
The tumor samples were collected at predetermined time points for PK and WB analysis. The tumor was dissected out and split into 3 parts. The 1st part was used for PK analysis, the 2nd part was used for WB analysis and the last one served as backup for study. The samples were transferred into pre-labeled tubes and quickly froze in liquid nitrogen within 2 minutes after dissection. The samples were stored at −80° C. before bioanalysis.
as §2
The harvested plasma and liver samples were processed for pharmacokinetics analysis by LC-MS/MS with a concentration range of 0.500-1000 ng/mL for Dabrafenib, Compound 118 and Compound 180 in plasma, 0.100~200 ng/ml for Dabrafenib in Liver and tumor homogenate, 50.0~50,000 ng/mL for Compound 141 in plasma and Liver homogenate, 1.00-1000 ng/ml for Compound 141 in tumor homogenate, 2.00~2000 ng/mL for Compound 118 and Compound 180 in Liver and 0.200~200 ng/ml in tumor homogenate, 1.00~2000 ng/mL for Compound 156 in plasma, 0.500-1000 ng/ml in liver and 0.500-1,000 ng/ml in tumor homogenate.

[4] = liver, read-out: Concentration in Liver (mean ± SEM)
[5] = plasma, read-out: Concentration in Plasma (mean ± SEM)
[6] = tumor, read-out: Concentration in Tumor (mean ± SEM)

Row | concentration at 6 h [1, 4] [ng/g] | concentration at 6 h [1, 5] [ng/mL] | Concentration in Liver (mean ± SEM) ([1]; 6 h) [ng/g] | Concentration in Plasma (mean ± SEM) ([1]; 6 h) [ng/mL] | concentration at 6 h [3, 4] [ng/g] | concentration at 12 h [3, 4] [ng/g] | concentration at 1 h [3, 5] [ng/mL] | concentration at 6 h [3, 5] [ng/mL] | concentration at 12 h [3, 5] [ng/mL] | concentration at 24 h [3, 5] [ng/mL] | concentration at 1 h [3, 6] [ng/g] | concentration at 6 h [3, 6] [ng/g] | concentration at 12 h [3, 6] [ng/g] | concentration at 24 h [3, 6] [ng/g] | SMILES | tumor regressions in the xenograft model [2] | antitumor response compared with comparators dabrafenib or encorafenib [2]
1 | 4240 ± 955 | 3990 ± 634 |  |  |  |  |  |  |  |  |  |  |  |  | CCN(C)S(=O)(=O)Nc1ccc(F)c(Oc2ccc3ncc([C@@H]4COC5(CCN(C6CCC(c7cc8c(cc7F)c(N7CCC(=O)NC7=O)nn8C)CC6)CC5)C4)nc3c2)c1C#N (single isomer, unassigned) [Compound 54] |  | 
2 |  |  | 6392 ± 570 | 16083 ± 1345 |  |  |  |  |  |  |  |  |  |  | CCN(C)S(=O)(=O)Nc1ccc(F)c(Oc2ccc3ncn([C@H]4COC5(CCN(C6CC(c7cc8c(cc7F)c(N7CCC(=O)NC7=O)nn8C)C6)CC5)C4)c(=O)c3c2)c1C#N (single isomer, unassigned) [Compound 70] |  | 
3 | 11000 ± 1050 | 17100 ± 1510 |  |  |  |  |  |  |  |  |  |  |  |  | CCN(C)S(=O)(=O)Nc1ccc(F)c(Oc2ccc3ncn(C4CC5(CCN(C6CCC(c7cc8c(cc7F)c(N7CCC(=O)NC7=O)nn8C)CC6F)CC5)C4)c(=O)c3c2)c1C#N (single isomer, unassigned) [Compound 83, 6-[2-cyano-3-[[ethyl(methyl)sulfamoyl]amino]-6-fluoro-phenoxy]-3-[7-[4-[3-(2,4-dioxohexahydropyrimidin-1-yl)-5-fluoro-1-methyl-indazol-6-yl]-2-fluoro-cyclohexyl]-7-azaspiro[3.5]nonan-2-yl]-4-oxo-quinazoline] |  | 
4 | 652 ± 180 | 1100 ± 389 |  |  |  |  |  |  |  |  |  |  |  |  | Cn1nc(N2CCC(=O)NC2=O)c2cc(F)c(C3CCC(N4CCC5(CC4)CC(n4cnc6ccc(Oc7c(F)ccc(NS(=O)(=O)C8CCCC8)c7C#N)cc6c4=O)C5)CC3)cc21 (single isomer, unassigned) [Compound 93, N-[2-cyano-3-[3-[7-[4-[3-(2,4-dioxohexahydropyrimidin-1-yl)-5-fluoro-1-methyl-indazol-6-yl]cyclohexyl]-7-azaspiro[3.5]nonan-2-yl]-4-oxo-quinazolin-6-yl]oxy-4-fluoro-phenyl]cyclopentanesulfonamide] |  | 
5 |  |  |  |  | 103000 ± 9270 | 111000 ± 12000 | 1240 ± 90.2 | 1500 ± 574 | 985 ± 234 | 595 ± 81.8 | 345 ± 57.4 | 855 ± 257 | 509 ± 101 | 254 ± 7.8 | CCN(C)S(=O)(=O)Nc1ccc(F)c(Oc2ccc3ncc(OCC4CCN(C5CCC(c6cc7c(cc6F)c(N6CCC(=O)NC6=O)nn7C)CC5)CC4)nc3c2)c1C#N (single isomer, unassigned) [Compound 118, 7-[2-cyano-3-[[ethyl(methyl)sulfamoyl]amino]-6-fluoro-phenoxy]-2-[[1-[4-[3-(2,4-dioxohexahydropyrimidin-1-yl)-5-fluoro-1-methyl-indazol-6-yl]cyclohexyl]-4-piperidyl]methoxy]quinoxaline] | profound tumor regressions | more robust antitumor response
6 |  |  |  |  | 712 ± 282 | 247 ± 33.7 | 5110 ± 867 | 260 ± 84.3 | 155 ± 27.8 | 1.54 ± 0.588 | 680 ± 72.8 | 245 ± 34.7 | 82.6 ± 21.8 | 3.89 | CCN(C)S(=O)(=O)Nc1ccc(F)c(Oc2ccc3ncc(C4CC5(CCN(C6CCC(c7cc8c(cc7F)c(N7CCC(=O)NC7=O)nn8C)CC6)CC5)C4)nc3c2)c1C#N (single isomer, unassigned) [Compound 180, 7-[2-cyano-3-[[ethyl(methyl)sulfamoyl]amino]-6-fluoro-phenoxy]-2-[7-[4-[3-(2,4-dioxohexahydropyrimidin-1-yl)-5-fluoro-1-methyl-indazol-6-yl]cyclohexyl]-7-azaspiro[3.5]nonan-2-yl]quinoxaline] | profound tumor regressions | more robust antitumor response
7 |  |  |  |  | 1460 ± 170 | 262 ± 100 | 4130 ± 545 | 805 ± 85.2 | 111 ± 46.3 | 1.78 ± 0.554 | 758 ± 66.9 | 295 ± 30.3 | 102 ± 35.6 | 33.5 | CCN(C)S(=O)(=O)Nc1ccc(F)c(Oc2ccc3ncn(C4CC5(CCN(C6CCN(c7cc8c(cc7F)c(N7CCC(=O)NC7=O)nn8C)CC6)CC5)C4)c(=O)c3c2)c1C#N [Compound 156, 6-[2-cyano-3-[[ethyl(methyl)sulfamoyl]amino]-6-fluoro-phenoxy]-3-[7-[1-[3-(2,4-dioxohexahydropyrimidin-1-yl)-5-fluoro-1-methyl-indazol-6-yl]-4-piperidyl]-7-azaspiro[3.5]nonan-2-yl]-4-oxo-quinazoline] | profound tumor regressions | more robust antitumor response

Row | SMILES | concentration at 6 h [1, 4] [ng/g] | concentration at 6 h [1, 5] [ng/mL] | Concentration in Liver (mean ± SEM) ([1]; 6 h) [ng/g] | Concentration in Plasma (mean ± SEM) ([1]; 6 h) [ng/mL] | concentration at 6 h [3, 4] [ng/g] | concentration at 12 h [3, 4] [ng/g] | concentration at 1 h [3, 5] [ng/mL] | concentration at 6 h [3, 5] [ng/mL] | concentration at 12 h [3, 5] [ng/mL] | concentration at 24 h [3, 5] [ng/mL] | concentration at 1 h [3, 6] [ng/g] | concentration at 6 h [3, 6] [ng/g] | concentration at 12 h [3, 6] [ng/g] | concentration at 24 h [3, 6] [ng/g] | tumor regressions in the xenograft model [2] | antitumor response compared with comparators dabrafenib or encorafenib [2]
8 | CCN(C)S(=O)(=O)Nc1ccc(F)c(Oc2ccc3ncn(C4CC5(CCN(C6CC7(C6)CN(c6cc8c(cc6F)c(N6CCC(=O)NC6=O)nn8C)C7)CC5)C4)c(=O)c3c2)c1C#N (centres unmarked) [Compound 141, 6-[2-cyano-3-[[ethyl(methyl)sulfamoyl]amino]-6-fluoro-phenoxy]-3-[7-[2-[3-(2,4-dioxohexahydropyrimidin-1-yl)-5-fluoro-1-methyl-indazol-6-yl]-2-azaspiro[3.3]heptan-6-yl]-7-azaspiro[3.5]nonan-2-yl]-4-oxo-quinazoline] |  |  |  |  | 9730 ± 1380 | 3050 ± 618 | 17700 ± 924 | 10700 ± 1420 | 2530 ± 365 | 219 ± 74.6 | 2120 ± 109 | 2230 ± 114 | 818 ± 121 | 75.4 ± 24.3 | profound tumor regressions | more robust antitumor response
